From patent US5032577A, “Peptidylaminodiols” (Abbott Laboratories, priority 1987, dated 1991) come the findings set out here.

This assay deals with T1, human renal renin (Homo sapiens, UniProt P00797).
T1 construct: human renal renin, free from acid proteolytic activity; from tissue
T1 sequence (P00797 67-406): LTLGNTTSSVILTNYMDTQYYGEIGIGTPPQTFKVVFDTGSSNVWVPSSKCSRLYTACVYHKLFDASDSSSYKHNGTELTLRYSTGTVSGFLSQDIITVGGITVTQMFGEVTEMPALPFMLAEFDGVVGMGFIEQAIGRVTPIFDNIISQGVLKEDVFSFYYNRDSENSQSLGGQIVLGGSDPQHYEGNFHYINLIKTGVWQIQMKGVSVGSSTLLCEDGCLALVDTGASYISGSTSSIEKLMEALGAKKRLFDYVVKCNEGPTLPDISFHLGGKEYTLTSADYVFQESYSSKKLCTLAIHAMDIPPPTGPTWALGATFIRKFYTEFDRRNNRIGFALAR
The assay is described as follows: Inhibition of human renal renin in vitro; angiotensin I formed measured by radioimmunoassay. In kind it is biochemical.

For orientation: IC50 means the concentration needed to halve the response being measured. Low values mean inhibition by little substance, high ones a need for much substance. In the case of `CC(C)C[C@H](NC(=O)[C@H](Cc1ccccc1)NC(=O)CCCC(=O)O)C(=O)N[C@@H](CC1CCCCC1)[C@@H](O)[C@@H](O)CC(C)C` [Example 184, 4-Carboxybutyroyl-Phe-Leu Amide of 2(S)-Amino-l-cyclohexyl-3(R),4(S)-dihydroxy-6-methylheptane], the IC50 was determined as 0.59 nM.

`CCOC(=O)[C@H](C)N[C@@H](Cc1ccccc1)C(=O)N[C@@H](Cc1c[nH]cn1)C(=O)N[C@@H](CC1CCCCC1)[C@@H](O)[C@@H](O)CC(C)C` [Example 185B, [l(S)-(Ethoxycarbonyl)-ethyl]-Phe-His Amide of 2(S)-Amino-1-cyclohexyl-3(R),4(S)-dihydroxy-6-methylheptane] gave an IC50 of 0.51 nM. In the case of `CC(C)C[C@H](O)[C@H](O)[C@H](CC1CCCCC1)NC(=O)[C@H](Cc1c[nH]cn1)NC(=O)[C@H](Cc1ccccc1)NC(=O)COCC(=O)O` [Example 186, Carboxymethoxymethylcarbonyl-Phe-His Amide of 2(S)-Amino-1-cyclohexyl-3(R),4(S)-dihydroxy-6-methylheptane] it was 2 nM. The molecule `COC(=O)C(CCCCC(=O)N[C@@H](Cc1ccc(OC)cc1)C(=O)N[C@@H](CC(C)C)C(=O)N[C@@H](CC1CCCCC1)[C@@H](O)[C@@H](O)CC(C)C)NC(=O)OCc1ccccc1` (stereo partly drawn) [Example 192, 6-(BenzYloxYcarbonyl)amino-6-(methoxycarbonyl)hexanoyl-(4-OMe)Phe-Leu Amide of 2(S)-Amino-l-cyclohexyl-3(R),4(S)-dihydroxy-6-methylheptane] gave an IC50 of 0.61 nM. For the molecule `COC(=O)C(N)CCCCC(=O)N[C@@H](Cc1ccc(OC)cc1)C(=O)N[C@@H](CC(C)C)C(=O)N[C@@H](CC1CCCCC1)[C@@H](O)[C@@H](O)CC(C)C` (stereo partly drawn) [Example 193, 6-Amino-6-(methoxycarbonyl)hexanoyl-(4-OMe)Phe-Leu Amide of 2(S)-Amino-l-cyclohexyl-3(R),4(S)-dihydroxy-6-methylheptane], the IC50 turned out to be 0.74 nM. In the case of `COc1ccc(C[C@H](NC(=O)CCCCC(N)C(=O)O)C(=O)N[C@@H](CC(C)C)C(=O)N[C@@H](CC2CCCCC2)[C@@H](O)[C@@H](O)CC(C)C)cc1` (stereo partly drawn) [Example 194, 6-Amino-6-carboxyhexanoyl-(4-OMe)Phe-Leu Amide of 2(S)-Amino-l-cyclohexyl-3(R),4(S)-dihydroxy-6-methylheptane] it was 2.3 nM; in that of `COCCOCOCCN(C)C(=O)C[C@@H](Cc1ccccc1)C(=O)N[C@@H](Cc1c[nH]cn1)C(=O)N[C@@H](CC1CCCCC1)[C@@H](O)[C@@H](O)CC(C)C` [Example 214, (2R)-2-Benzyl-3-(N-methyl-N-2-methoxyethoxymethoxyethylamino-carbonyl)propionyl-His Amide of 2(S)-Amino-l-cyclohexyl-3(R),4(S)-dihydroxy-6-methylheptane], 0.24 nM.
